Laboratory results reported in patent US20190359560A1, “ANTI-INFLAMMATORY DRUG AND USES THEREOF” (KYUSHU UNIVERSITY, NATIONAL UNIVERSITY CORPORATION, priority 2015, published 2019).

Experiments:
[1] = Blood and liver concentration after oral administration (LC/MS/MS); type: in vivo, mouse; settings: mice, 15 mg/kg oral
Experimental: Compound No. 2 (15 mg/kg) was orally administered to mice. Blood was collected at 0 minutes, 5 minutes, 15 minutes, 30 minutes, 1 hour, 2 hours, 4 hours, 6 hours and 12 hours after the administration of Compound No. 2 and the blood concentration of the compound was measured by LC/MS/MS. In addition, the liver was harvested at 0 minutes, 5 minutes, 15 minutes, 30 minutes, 1 hour and 6 hours after the administration of Compound No. 2, and the liver concentration of the compound was measured by LC/MS/MS.

[2] = system: STAT5 protein; assay: Nuclear abundance of STAT5 protein in NIH3T3 cells (Western blotting); type: cell-based, mouse; settings: NIH3T3 cells, 2.5, 5 and 10 μM, 24 hours, vs control
Experimental: Compound No. 2 or DMSO (control) at final concentrations of 2.5, 5 and 10 μM was added to the medium of NIH3T3 cells, which are mouse fibroblasts. Subsequently, the cells were recovered after 24 hours, the nuclear protein was prepared, and the abundance of the STAT5 protein was measured by Western blotting.

[3] = system: G0S2 transcriptional activity regulatory region; assay: Luciferase assay with G0S2 transcriptional activity regulatory regions of each length in NIH3T3 cells; type: cell-based, mouse; settings: NIH3T3 stable cells, 10 μM, 24 hours
Experimental: Subsequently, these expression vectors were transfected into NIH3T3 cells, which are mouse fibroblast cells, to construct cells stably expressing luciferase.
Subsequently, Compound No. 2 or DMSO (control) at a final concentration of 10 μM was added to the medium of each cell. Subsequently, the cells were recovered after 24 hours and the luciferase activity was measured.

[4] = system: p65 protein (NF-κB); assay: LPS-administered mice: nuclear abundance of p65 protein in liver (Western blotting); type: in vivo; settings: LPS 10 μg/mouse tail vein; 5 mg/kg subcutaneous 1 hour after LPS; liver 5 hours later; vs LPS group
Experimental: (§1) LPS (10 μg/mouse) was administered to ICR male mice by tail vein injection to prepare an LPS-administered group. In addition, a mouse to which physiological saline was administered instead of LPS was prepared and used as a control group. Subsequently, the LPS-administered group was divided into two groups, in which 1 hour after the administration of LPS, Compound No. 2 was subcutaneously administered at a dose of 5 mg/kg to the dorsal region of mice of one group which was then served as an LPS+No. 2-administered group. Subsequently, 5 hours after the administration of Compound No. 2, mice of each group were sacrificed and the liver was harvested.
For the liver of mice of each group, the nuclear abundance of the p65 protein, which is one of the constituent proteins of NF-κB, was quantified by Western blotting. FIG. 11B is a graph showing the quantitative results of the p65 protein.

[5] = system: G0S2 protein; assay: LPS-administered mice: G0S2 protein in liver (Western blotting); type: in vivo; settings: LPS 10 μg/mouse tail vein; 5 mg/kg subcutaneous 1 hour after LPS; liver 5 hours later; vs LPS group
Experimental: as §1
Subsequently, the expression level of the G0S2 protein in the liver of mice of each group obtained was quantified by Western blotting. FIG. 11A is a graph showing the quantitative results of the G0S2 protein.

[6] = system: Ccl2 mRNA; assay: LPS hepatitis model mouse: Ccl2 mRNA in liver; type: in vivo
Experimental: Next, whether or not Compound No. 2 whose effect in vivo was confirmed has an effect to antagonize the activation of an inflammatory signal was examined. Hepa1-6 cells were exposed to Compound No. 2 at a dose of 10 μM simultaneously with exposure to lipopolysaccharide (LPS) or TNFα which activates NF-κB for which the G0S2 protein acts as a regulator. As shown in FIGS. 10A and 10B, the cells were recovered 12 hours after the exposure and the expression level of Ccl2 mRNA was measured. […] In addition, 25 μg of LPS was administered to the tail vein of a mouse to thereby construct a hepatitis model. 30 minutes after the administration of LPS, Compound No. 2 (5 mg/kg) was administered to the tail vein of the mouse, and the liver was sampled at 6 hours.
LPS (10 μg/mouse) was administered to ICR male mice by tail vein injection to prepare an LPS-administered group. […]
In addition, for the liver of mice of each group, the expression level of mRNA of Ccl2, which is a target gene of NF-κB, was quantified by real-time PCR. FIG. 11C is a graph showing the quantitative results of the expression level of mRNA of Ccl2.
10 μg of LPS was intraperitoneally administered to mice to construct a hepatitis model. […] 5 hours after the administration of each compound, the liver was harvested from each mouse and the expression level of Ccl2 was quantified by real-time PCR.

[7] = system: Bmal1 promoter; assay: Bmal1 promoter luciferase assay in MEF cell line; type: cell-based; settings: MEF reporter cell line, 10 μM, 24 hours
Experimental: Therefore, in order to exclude compounds having an effect on clock genes in normal cells, studies were conducted using the MEF cell line stably expressing an expression cassette in which a luciferase gene was ligated to the downstream side of the Bmal1 promoter.

[8] = system: neuropathic pain model mouse; assay: Neuropathic pain model constructed by cancer transplantation; type: in vivo; settings: tumor-bearing mice 2 weeks after cancer transplantation, 15 mg/kg subcutaneous, at 4, 6 and 8 hours
Experimental: The neuropathic pain model constructed by cancer transplantation activates NF-κB. Therefore, a dose of 15 mg/kg of Compound No. 2 was subcutaneously administered to a model mouse in which the […] was carried out at 2 weeks after cancer transplantation and the pain intensity was measured to confirm that pain was induced.

[9] = system: G0S2 protein; assay: G0S2 protein in liver of normal mice; type: in vivo, mouse; settings: normal ICR male mice, 15 mg/kg subcutaneous, 4 hours and 6 hours after administration

**Q.** With `CCCCCCNC(=N)NCc1ccccc1` [Compound No. 2] as the molecule, how does the “time after administration at which concentration in blood was highest” value [1] read?
**A.** 15 min

**Q.** What about the “time after administration at which concentration in liver was highest” value [1] of the same molecule?
**A.** 5 min

**Q.** What about the “nuclear abundance of the STAT5 protein” value [2] of the same molecule?
**A.** decreased in a dose-dependent manner

**Q.** And the “effect of inhibiting the expression of luciferase when the STAT5/6 binding region disappears” value [3]?
**A.** decreased

**Q.** And the “nuclear abundance of the p65 protein in the liver” value [4]?
**A.** significantly decreased

**Q.** And the “expression of G0S2 protein in the liver” value [5]?
**A.** significantly inhibited

**Q.** What about the “expression level of Ccl2 mRNA in the liver” value ([6]; LPS 10 μg/mouse tail vein, 5 mg/kg subcutaneous 1 hour after LPS, liver 5 hours later, vs LPS group) of the same molecule?
**A.** significantly decreased

**Q.** And the “expression of Ccl2 mRNA in the liver” value ([6]; LPS 25 μg tail vein, compound 5 mg/kg tail vein 30 minutes after LPS, liver at 6 hours)?
**A.** significantly inhibited

**Q.** What about the Bmal1 promoter activity [7] of the same molecule?
**A.** no significant change

**Q.** And the “pain intensity (PWT) over time” value [8]?
**A.** significantly relieved

**Q.** What about the “expression level of G0S2 protein in the liver” value [9] of the same molecule?
**A.** significant decrease
